Laboratory results taken from paper PMC9030254, “Target Hopping from Protein Kinases to PXR: Identification of Small-Molecule Protein Kinase Inhibitors as Selective Modulators of Pregnane X Receptor from TüKIC Library” (Cells, 2022).

What was measured:
Experiment in all cases: Kinase profiling
Assay type in all cases: biochemical
BMPR1B = biological target: T1, BMPR1B (Homo sapiens, UniProt O00238)
T1 construct: purchased ProQinase (Freiburg, Germany)
Procedure: (§1) The analysis was performed by ProQinase (Freiburg, Germany).

BMX = biological target: T2, BMX (Homo sapiens, UniProt P51813)
T2 construct: purchased ProQinase (Freiburg, Germany)
T2 sequence (P51813 1-675): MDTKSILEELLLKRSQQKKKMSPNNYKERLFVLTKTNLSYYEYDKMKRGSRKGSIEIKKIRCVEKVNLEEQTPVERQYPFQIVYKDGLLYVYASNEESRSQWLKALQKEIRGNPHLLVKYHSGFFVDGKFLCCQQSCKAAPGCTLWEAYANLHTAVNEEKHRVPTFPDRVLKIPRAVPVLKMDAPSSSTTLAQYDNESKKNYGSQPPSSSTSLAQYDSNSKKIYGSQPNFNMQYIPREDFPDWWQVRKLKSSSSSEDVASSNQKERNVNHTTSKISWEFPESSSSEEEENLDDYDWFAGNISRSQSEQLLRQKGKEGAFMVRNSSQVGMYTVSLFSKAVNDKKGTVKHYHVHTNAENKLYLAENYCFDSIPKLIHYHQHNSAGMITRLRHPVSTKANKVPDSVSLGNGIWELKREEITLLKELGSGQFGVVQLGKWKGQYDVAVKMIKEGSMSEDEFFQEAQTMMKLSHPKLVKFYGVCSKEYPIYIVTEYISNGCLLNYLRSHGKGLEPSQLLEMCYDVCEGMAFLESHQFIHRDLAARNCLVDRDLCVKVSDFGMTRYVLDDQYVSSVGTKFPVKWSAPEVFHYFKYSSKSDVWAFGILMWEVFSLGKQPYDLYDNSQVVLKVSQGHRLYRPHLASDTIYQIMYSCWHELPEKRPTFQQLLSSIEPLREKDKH
Procedure: as §1

CAMKK2 = biological target: T3, CAMKK2 (Homo sapiens, UniProt Q96RR4)
T3 construct: purchased ProQinase (Freiburg, Germany)
Procedure: as §1

CDC42BPB = biological target: T4, CDC42BPB (Homo sapiens, UniProt Q9Y5S2)
T4 construct: purchased ProQinase (Freiburg, Germany)
Procedure: as §1

CDK1/CycB1 = biological target: T5, CDK1/CycB1 (Homo sapiens, UniProt P06493)
T5 construct: purchased ProQinase (Freiburg, Germany)
Procedure: as §1

CLK2 = biological target: T6, CLK2 (Homo sapiens, UniProt P49760)
T6 construct: purchased ProQinase (Freiburg, Germany)
Procedure: as §1

MST1 = biological target: T7, MST1 (Homo sapiens, UniProt Q13043)
T7 construct: purchased ProQinase (Freiburg, Germany)
T7 sequence (Q13043 1-487): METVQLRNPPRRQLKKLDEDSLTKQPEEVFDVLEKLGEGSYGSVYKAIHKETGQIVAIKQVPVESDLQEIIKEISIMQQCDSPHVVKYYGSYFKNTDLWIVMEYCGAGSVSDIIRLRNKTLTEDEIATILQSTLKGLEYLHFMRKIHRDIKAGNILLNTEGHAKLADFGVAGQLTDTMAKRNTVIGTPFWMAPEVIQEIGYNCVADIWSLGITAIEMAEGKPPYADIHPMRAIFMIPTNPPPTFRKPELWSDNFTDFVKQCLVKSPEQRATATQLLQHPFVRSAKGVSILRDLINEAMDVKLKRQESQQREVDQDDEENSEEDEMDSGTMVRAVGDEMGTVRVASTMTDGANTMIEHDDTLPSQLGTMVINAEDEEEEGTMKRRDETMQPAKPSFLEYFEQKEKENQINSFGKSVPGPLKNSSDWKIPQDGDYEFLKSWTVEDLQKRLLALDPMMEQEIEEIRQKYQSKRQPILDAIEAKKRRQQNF
Procedure: as §1

MYLK2 = biological target: T8, MYLK2 (Homo sapiens, UniProt Q9H1R3)
T8 construct: purchased ProQinase (Freiburg, Germany)
Procedure: as §1

PAK1 = biological target: T9, PAK1 (Homo sapiens, UniProt Q13153)
T9 construct: purchased ProQinase (Freiburg, Germany)
Procedure: as §1

PLK3 = biological target: T10, PLK3 (Homo sapiens, UniProt Q9H4B4)
T10 construct: purchased ProQinase (Freiburg, Germany)
Procedure: as §1

SNARK = biological target: T11, SNARK (Homo sapiens, UniProt Q9H093)
T11 construct: purchased ProQinase (Freiburg, Germany)
T11 sequence (Q9H093 1-628): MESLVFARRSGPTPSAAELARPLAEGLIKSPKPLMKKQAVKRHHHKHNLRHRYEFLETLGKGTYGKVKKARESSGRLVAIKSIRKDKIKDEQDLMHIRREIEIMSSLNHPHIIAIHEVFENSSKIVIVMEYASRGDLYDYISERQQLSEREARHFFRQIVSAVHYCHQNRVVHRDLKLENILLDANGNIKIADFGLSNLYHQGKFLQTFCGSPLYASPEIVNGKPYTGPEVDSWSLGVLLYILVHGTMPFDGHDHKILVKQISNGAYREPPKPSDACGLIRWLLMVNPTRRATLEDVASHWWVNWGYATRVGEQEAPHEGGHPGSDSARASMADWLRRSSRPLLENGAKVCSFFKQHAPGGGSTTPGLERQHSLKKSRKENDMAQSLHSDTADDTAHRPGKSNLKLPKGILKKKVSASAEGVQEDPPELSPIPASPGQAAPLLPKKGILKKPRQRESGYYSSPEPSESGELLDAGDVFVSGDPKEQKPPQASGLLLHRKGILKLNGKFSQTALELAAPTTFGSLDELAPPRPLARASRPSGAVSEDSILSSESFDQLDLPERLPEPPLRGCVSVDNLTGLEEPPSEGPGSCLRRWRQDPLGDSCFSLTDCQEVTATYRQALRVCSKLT
Procedure: as §1

VRK1 = biological target: T12, VRK1 (Homo sapiens, UniProt Q99986)
T12 construct: purchased ProQinase (Freiburg, Germany)
T12 sequence (Q99986 1-396): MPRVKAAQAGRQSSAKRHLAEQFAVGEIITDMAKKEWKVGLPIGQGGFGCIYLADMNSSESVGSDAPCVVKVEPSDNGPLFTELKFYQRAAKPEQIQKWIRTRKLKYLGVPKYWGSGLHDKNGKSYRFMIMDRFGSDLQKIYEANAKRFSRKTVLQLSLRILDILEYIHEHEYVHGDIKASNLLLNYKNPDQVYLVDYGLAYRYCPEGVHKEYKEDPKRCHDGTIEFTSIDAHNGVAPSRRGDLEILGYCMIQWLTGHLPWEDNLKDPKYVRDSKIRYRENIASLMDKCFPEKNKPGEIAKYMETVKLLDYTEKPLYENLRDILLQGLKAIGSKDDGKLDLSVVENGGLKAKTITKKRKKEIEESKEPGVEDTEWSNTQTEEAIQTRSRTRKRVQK
Procedure: as §1

T1 sequence (O00238 14-502): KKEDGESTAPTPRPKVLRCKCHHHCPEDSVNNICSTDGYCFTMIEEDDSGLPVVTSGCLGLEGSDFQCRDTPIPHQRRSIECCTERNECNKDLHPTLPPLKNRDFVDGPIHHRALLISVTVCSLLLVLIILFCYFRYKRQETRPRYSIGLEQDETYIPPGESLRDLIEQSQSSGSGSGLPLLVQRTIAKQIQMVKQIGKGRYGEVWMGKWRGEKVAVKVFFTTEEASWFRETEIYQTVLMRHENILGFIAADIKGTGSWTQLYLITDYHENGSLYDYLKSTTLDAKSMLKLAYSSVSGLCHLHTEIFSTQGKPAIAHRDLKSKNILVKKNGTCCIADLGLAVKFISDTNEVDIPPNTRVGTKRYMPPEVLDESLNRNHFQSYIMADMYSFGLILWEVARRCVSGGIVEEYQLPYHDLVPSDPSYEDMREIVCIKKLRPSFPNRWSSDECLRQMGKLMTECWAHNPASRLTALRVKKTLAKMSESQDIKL
T6 sequence (P49760 whole entry): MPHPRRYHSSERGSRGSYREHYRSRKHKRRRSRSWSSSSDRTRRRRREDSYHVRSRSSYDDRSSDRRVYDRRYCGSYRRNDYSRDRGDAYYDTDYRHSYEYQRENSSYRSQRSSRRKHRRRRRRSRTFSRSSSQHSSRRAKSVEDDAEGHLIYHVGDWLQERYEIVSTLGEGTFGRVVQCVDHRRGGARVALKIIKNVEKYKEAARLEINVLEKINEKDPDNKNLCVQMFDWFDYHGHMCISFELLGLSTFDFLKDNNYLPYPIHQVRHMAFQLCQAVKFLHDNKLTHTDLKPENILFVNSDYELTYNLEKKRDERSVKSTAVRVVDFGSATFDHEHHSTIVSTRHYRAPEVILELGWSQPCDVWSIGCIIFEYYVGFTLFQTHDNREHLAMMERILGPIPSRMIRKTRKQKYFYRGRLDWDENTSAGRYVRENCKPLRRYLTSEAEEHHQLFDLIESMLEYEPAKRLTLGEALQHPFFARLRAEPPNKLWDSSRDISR
T5 sequence (P06493 whole entry): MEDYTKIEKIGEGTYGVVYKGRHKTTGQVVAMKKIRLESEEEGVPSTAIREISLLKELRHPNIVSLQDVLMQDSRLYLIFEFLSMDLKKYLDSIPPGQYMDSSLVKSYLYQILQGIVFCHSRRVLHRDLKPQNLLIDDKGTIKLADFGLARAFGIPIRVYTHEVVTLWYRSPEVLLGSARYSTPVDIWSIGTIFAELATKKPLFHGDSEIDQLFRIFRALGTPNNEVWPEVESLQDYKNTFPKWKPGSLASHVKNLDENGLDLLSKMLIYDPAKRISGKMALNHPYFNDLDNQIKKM
T5 sequence (P14635 whole entry partner): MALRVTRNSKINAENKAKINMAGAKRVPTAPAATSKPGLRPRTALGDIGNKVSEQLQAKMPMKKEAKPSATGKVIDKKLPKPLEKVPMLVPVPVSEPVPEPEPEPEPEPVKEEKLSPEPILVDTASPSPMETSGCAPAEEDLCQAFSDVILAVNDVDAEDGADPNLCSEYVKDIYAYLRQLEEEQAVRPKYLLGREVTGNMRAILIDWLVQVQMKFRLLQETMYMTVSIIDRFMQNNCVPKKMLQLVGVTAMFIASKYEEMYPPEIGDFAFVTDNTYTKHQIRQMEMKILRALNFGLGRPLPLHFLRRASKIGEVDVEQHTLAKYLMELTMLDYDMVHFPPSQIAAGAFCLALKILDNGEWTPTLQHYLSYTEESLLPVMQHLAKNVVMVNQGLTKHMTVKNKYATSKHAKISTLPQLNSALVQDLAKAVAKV
T4 sequence (Q9Y5S2 whole entry): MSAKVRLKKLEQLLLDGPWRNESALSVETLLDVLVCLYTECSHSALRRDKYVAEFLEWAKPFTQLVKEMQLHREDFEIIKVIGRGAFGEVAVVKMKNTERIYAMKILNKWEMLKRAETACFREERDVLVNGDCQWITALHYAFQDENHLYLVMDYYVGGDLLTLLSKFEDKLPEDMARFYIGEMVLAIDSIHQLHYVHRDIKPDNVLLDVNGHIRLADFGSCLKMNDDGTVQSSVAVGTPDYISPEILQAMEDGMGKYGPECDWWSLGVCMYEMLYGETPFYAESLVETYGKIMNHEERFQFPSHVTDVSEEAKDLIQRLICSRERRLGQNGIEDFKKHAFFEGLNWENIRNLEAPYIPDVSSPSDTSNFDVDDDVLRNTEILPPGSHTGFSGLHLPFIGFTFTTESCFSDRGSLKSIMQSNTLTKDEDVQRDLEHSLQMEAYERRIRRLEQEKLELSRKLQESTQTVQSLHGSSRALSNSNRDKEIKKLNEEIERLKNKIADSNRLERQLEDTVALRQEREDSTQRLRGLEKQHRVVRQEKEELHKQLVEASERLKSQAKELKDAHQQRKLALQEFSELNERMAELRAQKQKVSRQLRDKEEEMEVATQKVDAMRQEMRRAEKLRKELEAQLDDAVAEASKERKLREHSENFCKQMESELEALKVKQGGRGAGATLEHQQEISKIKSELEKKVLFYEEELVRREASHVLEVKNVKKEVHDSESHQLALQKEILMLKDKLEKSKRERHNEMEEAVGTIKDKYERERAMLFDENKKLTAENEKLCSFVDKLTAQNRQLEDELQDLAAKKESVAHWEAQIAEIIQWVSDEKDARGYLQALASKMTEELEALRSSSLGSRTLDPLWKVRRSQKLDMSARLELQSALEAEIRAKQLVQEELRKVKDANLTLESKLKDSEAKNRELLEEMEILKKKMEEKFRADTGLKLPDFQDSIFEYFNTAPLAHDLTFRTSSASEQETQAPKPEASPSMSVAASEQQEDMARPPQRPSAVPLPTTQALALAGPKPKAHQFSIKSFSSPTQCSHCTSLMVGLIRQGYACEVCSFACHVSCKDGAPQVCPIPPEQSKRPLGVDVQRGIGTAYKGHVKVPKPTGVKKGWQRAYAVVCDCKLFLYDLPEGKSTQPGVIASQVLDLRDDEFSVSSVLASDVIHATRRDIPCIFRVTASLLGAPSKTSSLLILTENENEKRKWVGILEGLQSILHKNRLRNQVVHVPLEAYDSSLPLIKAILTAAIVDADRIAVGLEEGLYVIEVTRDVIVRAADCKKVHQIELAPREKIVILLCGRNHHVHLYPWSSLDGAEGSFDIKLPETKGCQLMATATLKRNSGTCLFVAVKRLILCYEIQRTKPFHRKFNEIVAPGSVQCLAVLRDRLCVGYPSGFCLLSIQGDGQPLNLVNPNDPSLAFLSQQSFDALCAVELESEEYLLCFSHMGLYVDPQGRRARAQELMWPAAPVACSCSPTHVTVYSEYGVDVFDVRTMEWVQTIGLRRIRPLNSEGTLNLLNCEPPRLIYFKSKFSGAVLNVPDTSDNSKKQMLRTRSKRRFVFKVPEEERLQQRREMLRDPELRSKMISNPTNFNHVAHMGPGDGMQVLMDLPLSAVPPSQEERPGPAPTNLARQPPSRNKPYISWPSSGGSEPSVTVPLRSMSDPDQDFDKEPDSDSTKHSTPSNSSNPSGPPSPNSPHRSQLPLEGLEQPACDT
T10 sequence (Q9H4B4 whole entry): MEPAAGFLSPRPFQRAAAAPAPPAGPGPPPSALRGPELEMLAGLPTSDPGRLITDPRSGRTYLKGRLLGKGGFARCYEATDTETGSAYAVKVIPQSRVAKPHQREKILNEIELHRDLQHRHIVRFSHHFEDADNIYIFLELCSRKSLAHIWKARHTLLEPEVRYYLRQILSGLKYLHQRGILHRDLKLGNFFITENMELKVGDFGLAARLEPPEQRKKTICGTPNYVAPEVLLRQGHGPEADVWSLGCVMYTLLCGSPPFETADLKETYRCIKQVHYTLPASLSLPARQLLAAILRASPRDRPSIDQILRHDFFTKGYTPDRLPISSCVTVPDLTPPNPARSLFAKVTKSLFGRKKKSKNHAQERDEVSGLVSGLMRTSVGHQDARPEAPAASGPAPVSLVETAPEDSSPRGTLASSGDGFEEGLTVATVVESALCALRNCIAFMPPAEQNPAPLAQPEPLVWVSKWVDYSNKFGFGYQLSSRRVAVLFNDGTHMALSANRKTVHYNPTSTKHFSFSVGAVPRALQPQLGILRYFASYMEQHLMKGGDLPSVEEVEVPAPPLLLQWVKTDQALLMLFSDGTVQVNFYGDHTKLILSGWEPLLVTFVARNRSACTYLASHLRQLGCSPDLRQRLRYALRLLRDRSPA
T9 sequence (Q13153 whole entry): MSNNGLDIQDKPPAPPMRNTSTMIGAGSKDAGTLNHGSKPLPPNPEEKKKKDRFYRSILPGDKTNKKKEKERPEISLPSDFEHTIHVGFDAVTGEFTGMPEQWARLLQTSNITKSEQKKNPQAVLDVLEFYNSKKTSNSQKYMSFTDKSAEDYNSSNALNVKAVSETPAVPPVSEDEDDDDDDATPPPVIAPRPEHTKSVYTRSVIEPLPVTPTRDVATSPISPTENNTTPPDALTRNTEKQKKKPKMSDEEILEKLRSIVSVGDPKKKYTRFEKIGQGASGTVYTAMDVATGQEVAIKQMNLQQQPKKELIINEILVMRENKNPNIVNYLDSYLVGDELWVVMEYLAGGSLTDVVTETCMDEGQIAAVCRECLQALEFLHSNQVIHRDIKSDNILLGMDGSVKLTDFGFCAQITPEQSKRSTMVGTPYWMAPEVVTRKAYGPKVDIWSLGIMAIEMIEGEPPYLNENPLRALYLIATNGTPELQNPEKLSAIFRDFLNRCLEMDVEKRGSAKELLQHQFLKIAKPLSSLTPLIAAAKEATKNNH

SMILES | Residual activity (BMPR1B; 1.0E-05 M) | Residual activity (BMPR1B; 1.0E-06 M) | Residual activity (BMX; 1.0E-05 M) | Residual activity (BMX; 1.0E-06 M) | Residual activity (CAMKK2; 1.0E-05 M) | Residual activity (CAMKK2; 1.0E-06 M) | Residual activity (CDC42BPB; 1.0E-05 M) | Residual activity (CDC42BPB; 1.0E-06 M) | Residual activity (CDK1/CycB1; 1.0E-05 M) | Residual activity (CDK1/CycB1; 1.0E-06 M) | Residual activity (CLK2; 1.0E-05 M) | Residual activity (CLK2; 1.0E-06 M) | Residual activity (MST1; 1.0E-05 M) | Residual activity (MST1; 1.0E-06 M) | Residual activity (MYLK2; 1.0E-05 M) | Residual activity (MYLK2; 1.0E-06 M) | Residual activity (PAK1; 1.0E-05 M) | Residual activity (PAK1; 1.0E-06 M) | Residual activity (PLK3; 1.0E-05 M) | Residual activity (PLK3; 1.0E-06 M) | also measured
O=C(Cc1ccccc1)Nc1ccc(F)c(Nc2ccc3c(c2)CCCCC3=O)c1 [Compound 100] | 121 % of control | 102 % of control | 71 % of control | 111 % of control | 95 % of control | 97 % of control | 107 % of control | 112 % of control | 100 % of control | 107 % of control | 107 % of control | 117 % of control | 92 % of control | 102 % of control | 82 % of control | 93 % of control | 88 % of control | 87 % of control | 114 % of control | 115 % of control | Residual activity (SNARK; 1.0E-05 M): 92 % of control; Residual activity (SNARK; 1.0E-06 M): 107 % of control; Residual activity (VRK1; 1.0E-05 M): 103 % of control; Residual activity (VRK1; 1.0E-06 M): 102 % of control
O=C(Nc1ccc(F)c(Nc2ccc3c(c2)CCCCC3=O)c1)c1cccc(F)c1 [Compound 109] | 128 % of control | 101 % of control | 83 % of control | 100 % of control | 81 % of control | 84 % of control | 110 % of control | 106 % of control | 114 % of control | 106 % of control | 103 % of control | 112 % of control | 98 % of control | 103 % of control | 79 % of control | 85 % of control | 80 % of control | 84 % of control | 104 % of control | 104 % of control | Residual activity (SNARK; 1.0E-05 M): 98 % of control; Residual activity (SNARK; 1.0E-06 M): 105 % of control; Residual activity (VRK1; 1.0E-05 M): 130 % of control; Residual activity (VRK1; 1.0E-06 M): 100 % of control
